Experiment in all cases: Cu(II)-VBIDA affinity for the tag (Table 1)
What all share (assay type): binding
Holding throughout (conditions): r^2 ≈ 0.98

Assay [1] addresses green fluorescent protein (GFP) variant GFP29, tag MEFHHSLVH, SEQ ID NO: 12. An excerpt:
(§1) In this figure the kD data is given in millimolar not micromolar units.

For assay [2], the target named is green fluorescent protein (GFP), n-GFP (native, N-terminus MEFELGT, SEQ ID NO: 1).
Source text: as §1

Assay [3] addresses green fluorescent protein (GFP) variant GFP24, tag MEFHLRARH, SEQ ID NO: 7.
Source text: as §1

The target in assay [4] is green fluorescent protein (GFP) variant GFP12, tag MEFHSVGLH, SEQ ID NO: 6.
Source text: as §1

Assay [5] deals with green fluorescent protein (GFP) variant GFP2, tag MEFHSVGMH, SEQ ID NO: 3.
Source text: as §1

Assay [6] concerns the target green fluorescent protein (GFP) variant GFP28, tag MEFHITGHH, SEQ ID NO: 11.
Source text: as §1

For assay [7], the target named is green fluorescent protein (GFP) variant GFP30, tag MEFHAHHLH, SEQ ID NO: 13.
Source text: as §1
(§2) These values are suitably low for such tags to be used in a separation process with binding of target at high enough affinity to allow for ease of washing and recovery.

The target in assay [8] is green fluorescent protein (GFP) variant GFP27, tag MEFHWVARH, SEQ ID NO: 10.
Source text: as §1, §2

The target in assay [9] is green fluorescent protein (GFP) variant GFP25, tag MEFHRPMRH, SEQ ID NO: 8.
Source text: as §1, §2

Assay [10] concerns the target green fluorescent protein (GFP), 6His-GFP, tag […], SEQ ID NO: 14.
Source text: as §1, §2

With `C=Cc1ccc(CN(CC(=O)O)CC(=O)O)cc1.[Cu+2]` [Cu(II)-VBIDA, N-(4-vinyl)-benzyl iminodiacetic acid], the Kd in assay [1] came to 100 µM; in assay [2], 1680 µM; in assay [3] it was 150 µM; in assay [4], 200 µM; in assay [5], 1200 µM; in [6] it was 110 µM. Moreover, the dissociation constant Kd in [7] was 90 µM; in assay [8], 120 µM; in assay [9], 140 µM; in assay [10], 70 µM.

Source of the values: patent publication US20110053225A1, “MULTI[…]” (GE […]-SCIENCES AB, priority 2008, published 2011).
